# Test system: RS411 cells
# Experiment: Cell Viability CTG Assay (CellTiter Glo) in RS411 cells
# Assay type: cell-based
# Conditions: Homo sapiens, RS4-11, 24 h, duration 1 day
# Description: Example 23. Cell Viability CTG Assay
# Day 0: Compounds or DMSO 60 nL were stamped to the cell plate as the platemap. RS411 cells were centrifuged at 800 rpm for 5 min, suspended with culture medium, and counted with Countess (Invitrogen). The cell density was adjusted to the recommend information. 30 μL of cell solution (1000 cells/well) was added to the assay plate as the platemap and 30 uL of media was added to column 2 and column 23 as the platemap. The plate was spun down briefly. The final concentration of the compounds started at 10 μM (3 fold dilution and 11 doses) and final DMSO concentration was 0.2%. The plate was spun down briefly and incubated at 37° C., 5% CO2 for 1-4 days.
# 30 μL CellTiter Glo reagent was added to each well and the plate was centrifuged at 1000 rpm for 30 sec. The plate was shaken for 1 min and centrifuged at 1000 rpm for 30 sec. The plate was incubated at RT for 10 min to stabilize the luminescent signal and the luminescence was read by EnVision.
# The letter codes for IC50 indicate the concentration of compound required to affect 50% of cells: A (<0.05 μM), B (0.05-0.1 μM), C (0.1-0.5 μM), D (0.5-1.0 μM), and E (>1.0 μM).
row,Compound,IC50 [nM]
1,CN(C(=O)c1ccc(NC(=O)[C@@H]2NC3(CCCCC3)[C@@]3(C(=O)Nc4cc(Cl)ccc43)[C@H]2c2cccc(Cl)c2F)cc1)C1CCN(Cc2cccc3c2n(C)c(=O)n3C2CCC(=O)NC2=O)CC1 (stereo partly shown) [I-63],< 50
2,Cn1c(=O)n(C2CCC(=O)NC2=O)c2cccc(CCCOC3CCN(C(=O)c4ccc(NC(=O)[C@@H]5NC6(CCCCC6)[C@@]6(C(=O)Nc7cc(Cl)ccc76)[C@H]5c5cccc(Cl)c5F)cc4)CC3)c21 (stereo partly shown) [I-64],< 50
3,Cn1c(=O)n(C2CCC(=O)NC2=O)c2cccc(N3CCC4(CC3)CN(C(=O)c3ccc(NC(=O)[C@@H]5NC6(CCCCC6)[C@@]6(C(=O)Nc7cc(Cl)ccc76)[C@H]5c5cccc(Cl)c5F)cc3)C4)c21 (stereo partly shown) [I-65],< 50
4,CN(CCCCCc1ccc2c(c1)n(C)c(=O)n2C1CCC(=O)NC1=O)C[C@H]1CC[C@H](NC(=O)[C@@H]2NC3(CCC(C)(C)CC3)[C@@]3(C(=O)Nc4cc(Cl)ccc43)[C@H]2c2cccc(Cl)c2F)CC1 (stereo partly shown) [I-66],< 50
5,"Cn1c(=O)n(C2CCC(=O)NC2=O)c2ccc(CCCCCNC(=O)[C@H]3CC[C@H](NC(=O)[C@@H]4NC5(CCCCC5)[C@@]5(C(=O)Nc6cc(Cl)ccc65)[C@H]4c4cccc(Cl)c4F)CC3)cc21 (stereo partly drawn) [I-67, (3′R,4'S,5′R)-6″-chloro-4′-(3-chloro-2-fluorophenyl)-N-((1r,4R)-4-((5-(1-(2,6-dioxopiperidin-3-yl)-3-methyl-2-oxo-2,3-dihydro-1H-benzo[d]imidazol-5-yl)pentyl)carbamoyl)cyclohexyl)-2″-oxodispiro[cyclohexane-1,2′-pyrrolidine-3′,3″-indoline]-5′-carboxamide]",< 50
6,Cn1c(=O)n(C2CCC(=O)NC2=O)c2ccc(C#CC3CCN(C[C@H]4CC[C@H](NC(=O)[C@@H]5NC6(CCC(C)(C)CC6)[C@@]6(C(=O)Nc7cc(Cl)ccc76)[C@H]5c5cccc(Cl)c5F)CC4)CC3)cc21 (stereo partly shown) [I-68],< 50
7,Cn1c(=O)n(C2CCC(=O)NC2=O)c2ccc(C#CC3CCN(C(=O)[C@H]4CC[C@H](NC(=O)[C@@H]5NC6(CCCCC6)[C@@]6(C(=O)Nc7cc(Cl)ccc76)[C@H]5c5cccc(Cl)c5F)CC4)CC3)cc21 (stereo partly shown) [I-69],< 50
8,Cn1c(=O)n(C2CCC(=O)NC2=O)c2ccc(C#CC3CCN(C[C@H]4CC[C@H](NC(=O)[C@@H]5NC6(CCCCC6)[C@@]6(C(=O)Nc7cc(Cl)ccc76)[C@H]5c5cccc(Cl)c5F)CC4)CC3)cc21 (stereo partly shown) [I-70],< 50
9,Cn1c(=O)n(C2CCC(=O)NC2=O)c2ccc(C#CC3CCN(C(=O)[C@H]4CC[C@H](NC(=O)[C@@H]5NC6(CCC(C)(C)CC6)[C@@]6(C(=O)Nc7cc(Cl)ccc76)[C@H]5c5cccc(Cl)c5F)CC4)CC3)cc21 (stereo partly shown) [I-71],< 50
10,Cn1c(=O)n(C2CCC(=O)NC2=O)c2ccc(CCCCCNC(=O)[C@H]3CC[C@H](NC(=O)[C@@H]4NC5(CCC(C)(C)CC5)[C@@]5(C(=O)Nc6cc(Cl)ccc65)[C@H]4c4cccc(Cl)c4F)CC3)cc21 (stereo partly shown) [I-72],< 50
11,"Cn1c(=O)n(C2CCC(=O)NC2=O)c2ccc(CCCCCNC(=O)c3ccc(NC(=O)[C@@H]4NC5(CCC(C)(C)CC5)[C@@]5(C(=O)Nc6cc(Cl)ccc65)[C@H]4c4cccc(Cl)c4F)cc3)cc21 (stereo partly drawn) [I-74, (3′R,4'S,5′R)-6″-chloro-4′-(3-chloro-2-fluorophenyl)-N-(4-((5-(1-(2,6-dioxopiperidin-3-yl)-3-methyl-2-oxo-2,3-dihydro-1H-benzo[d]imidazol-5-yl)pentyl)carbamoyl)phenyl)-4,4-dimethyl-2″-oxodispiro[cyclohexane-1,2′-pyrrolidine-3′,3″-indoline]-5′-carboxamide]",< 50
12,Cn1c(=O)n(C2CCC(=O)NC2=O)c2ccc(C#CC3CCN(C(=O)C45CCC(NC(=O)[C@@H]6NC7(CCCCC7)[C@@]7(C(=O)Nc8cc(Cl)ccc87)[C@H]6c6cccc(Cl)c6F)(CC4)CC5)CC3)cc21 (stereo partly shown) [I-75],< 50
13,Cn1c(=O)n(C2CCC(=O)NC2=O)c2ccc(C#CC3CCN(C(=O)c4ccc(NC(=O)[C@@H]5NC6(CCC(C)(C)CC6)[C@@]6(C(=O)Nc7cc(Cl)ccc76)[C@H]5c5cccc(Cl)c5F)cc4)CC3)cc21 (stereo partly shown) [I-76],100 to 500
14,CN1[C@@H](C(=O)Nc2ccc(CN3CCC(CCc4ccc5c(c4)n(C)c(=O)n5C4CCC(=O)NC4=O)CC3)cc2)[C@H](c2cccc(Cl)c2F)[C@]2(C(=O)Nc3cc(Cl)ccc32)C12CCCCC2 (stereo partly shown) [I-77],< 50
15,Cn1c(=O)n(C2CCC(=O)NC2=O)c2ccc(CCCCCNC(=O)c3cccc(NC(=O)[C@@H]4NC5(CCCCC5)[C@@]5(C(=O)Nc6cc(Cl)ccc65)[C@H]4c4cccc(Cl)c4F)c3)cc21 (stereo partly shown) [I-78],< 50
16,Cn1c(=O)n(C2CCC(=O)NC2=O)c2ccc(C#CC3CCN(Cc4ccc(NC(=O)[C@@H]5NC6(CCCCC6)[C@@]6(C(=O)Nc7cc(Cl)ccc76)[C@H]5c5cccc(Cl)c5F)cc4)CC3)cc21 (stereo partly shown) [I-79],< 50

row,Compound,IC50 [nM]
1,CN1[C@@H](C(=O)Nc2ccc(C(=O)N3CCC(C#Cc4ccc5c(c4)n(C)c(=O)n5C4CCC(=O)NC4=O)CC3)cc2)[C@H](c2cccc(Cl)c2F)[C@]2(C(=O)Nc3cc(Cl)ccc32)C12CCCCC2 (stereo partly shown) [I-80],< 50
2,CN1[C@@H](C(=O)Nc2ccc(C(=O)NCCCCCc3ccc4c(c3)n(C)c(=O)n4C3CCC(=O)NC3=O)cc2)[C@H](c2cccc(Cl)c2F)[C@]2(C(=O)Nc3cc(Cl)ccc32)C12CCC(C)(C)CC2 (stereo partly shown) [I-81],< 50
3,Cn1c(=O)n(C2CCC(=O)NC2=O)c2ccc(C#CCCCNC(=O)[C@H]3CC[C@H](NC(=O)[C@@H]4NC5(CCCCC5)[C@@]5(C(=O)Nc6cc(Cl)ccc65)[C@H]4c4cccc(Cl)c4F)CC3)cc21 (stereo partly shown) [I-82],< 50
4,Cn1c(=O)n(C2CCC(=O)NC2=O)c2ccc(C#CC3CCN(C(=O)[C@H]4CC[C@H](NC(=O)[C@@H]5NC6(CCC(C)(C)CC6)[C@@]6(C(=O)Nc7cc(Cl)ccc76)[C@H]5c5cccc(Cl)c5F)CO4)CC3)cc21 (stereo partly shown) [I-83],< 50
5,"COc1cc2c(cc1OC(C)C)C(c1ccc(Cl)cc1)N(c1ccc(N(C)CC3CCN(CCCCCCc4cccc5c4n(C)c(=O)n5C4CCC(=O)NC4=O)CC3)cc1)C(=O)C2 (stereo not shown) [I-84, 3-[4-[6-[4-[[4-[1-(4-Chlorophenyl)-7-isopropoxy-6-methoxy-3-oxo-1,4-dihydroisoquinolin-2-yl]-N-methylanilino]methyl]-1-piperidyl]hexyl]-3-methyl-2-oxo-benzimidazol-1-yl]piperidine-2,6-dione]",< 50
6,COc1cc2c(cc1OC(C)C)C(c1ccc(Cl)cc1)N(c1ccc(N(C)C[C@H]3CC[C@H](N(C)CCCCCc4ccc5c(c4)n(C)c(=O)n5C4CCC(=O)NC4=O)CC3)cc1)C(=O)C2 (stereo partly shown) [I-85],< 50
7,COc1cc2c(cc1OC(C)C)C(c1ccc(Cl)cc1)N(c1ccc(N(C)CC3CCN(CCCCCCc4ccc5c(c4)n(C)c(=O)n5C4CCC(=O)NC4=O)CC3)cc1)C(=O)C2 (stereo not shown) [I-86],< 50
8,COc1cc2c(cc1OC(C)C)C(c1ccc(Cl)cc1)N(c1ccc(N(C)C[C@H]3CC[C@H](N(C)CCCCCc4cccc5c4n(C)c(=O)n5C4CCC(=O)NC4=O)CC3)cc1)C(=O)C2 (stereo partly shown) [I-87],< 50
9,"Cn1c(=O)n(C2CCC(=O)NC2=O)c2ccc(C#CC3CN(C(=O)[C@H]4C[C@H](NC(=O)[C@@H]5NC6(CCCCC6)[C@@]6(C(=O)Nc7cc(Cl)ccc76)[C@H]5c5cccc(Cl)c5F)C4)C3)cc21 (stereo partly drawn) [I-89, (3′R,4'S,5′R)-6″-chloro-4′-(3-chloro-2-fluorophenyl)-N-((1r,3R)-3-(3-((1-(2,6-dioxopiperidin-3-yl)-3-methyl-2-oxo-2,3-dihydro-1H-benzo[d]imidazol-5-yl)ethynyl)azetidine-1-carbonyl)cyclobutyl)-2″-oxodispiro[cyclohexane-1,2′-pyrrolidine-3′,3″-indoline]-5′-carboxamide]",< 50
10,"CCCCCC1N(c2ccc(C(=O)O)cc2OC)C(=O)[C@H]2[C@H](c3cccc(Cl)c3F)[C@@](C#N)(c3ccc(Cl)cc3F)[C@H](CC(C)(C)C)N12 (stereo partly drawn) [I-91, 4-[(5S,6R,7S,7aR)-7-(3-chloro-2-fluoro-phenyl)-6-(4-chloro-2-fluoro-phenyl)-6-cyano-5-(2,2-dimethylpropyl)-1-oxo-3-pentyl-3,5,7,7a-tetrahydropyrrolo[1,2-c]imidazol-2-yl]-3-methoxy-benzoic acid]",> 1000
11,"COc1cc2c(cc1OC(C)C)C(c1ccc(Cl)cc1)N(c1ccc(N(C)C[C@H]3CC[C@H](NCC(=O)NCCCCCc4ccc5c(c4)n(C)c(=O)n5C4CCC(=O)NC4=O)CC3)cc1)C(=O)C2 (stereo partly shown) [I-92, 2-[[4-[[4-[1-(4-Chlorophenyl)-7-isopropoxy-6-methoxy-3-oxo-1,4-dihydroisoquinolin-2-yl]-N-methyl-anilino]methyl]cyclohexyl]amino]-N-[5-[1-(2,6-dioxo-3-piperidyl)-3-methyl-2-oxo-benzimidazol-5-yl]pentyl]acetamide]",< 50
12,CN(CCCCCc1ccc2c(c1)n(C)c(=O)n2C1CCC(=O)NC1=O)C[C@H]1CC[C@H](NC(=O)[C@@H]2NC3(CCCCC3)[C@@]3(C(=O)Nc4cc(Cl)ccc43)[C@H]2c2cccc(Cl)c2F)CC1 (stereo partly shown) [I-93],< 50
13,Cn1c(=O)n(C2CCC(=O)NC2=O)c2ccc(C(=O)CC3CCN(C(=O)[C@H]4CC[C@H](NC(=O)[C@@H]5NC6(CCCCC6)[C@@]6(C(=O)Nc7cc(Cl)ccc76)[C@H]5c5cccc(Cl)c5F)CC4)CC3)cc21 (stereo partly shown) [I-94],< 50
14,CN(C(=O)[C@@H]1NC2(CCCCC2)[C@@]2(C(=O)Nc3cc(Cl)ccc32)[C@H]1c1cccc(Cl)c1F)c1ccc(C(=O)NCCCCCc2ccc3c(c2)n(C)c(=O)n3C2CCC(=O)NC2=O)cc1 (stereo partly shown) [I-96],> 1000
15,Cn1c(=O)n(C2CCC(=O)NC2=O)c2ccc(CCCCCNC(=O)c3ccc(NC(=O)[C@@H]4NC5(CCCCC5)[C@@]5(C(=O)Nc6cc(Cl)ccc65)[C@H]4c4cccc(Cl)c4F)cc3)cc21 (stereo partly shown) [I-97],< 50
